Laboratory results taken from paper PMC7828111, “In Search for Multi-Target Ligands as Potential Agents for Diabetes Mellitus and Its Complications—A Structure-Activity Relationship Study on Inhibitors of Aldose Reductase and Protein Tyrosine Phosphatase 1B” (Molecules, 2021).

What was measured:
[1] = tested on: insulin receptor (IRβ) phosphorylation in C2C12 cells; assay: Insulin receptor phosphorylation in C2C12 cells (western blot); type: cell-based, murine
Protocol: The insulin mimetic/sensitizing activity of compound 4f was evaluated on both HepG2 and C2C12 cells. Starved HepG2 and C2C12 cells were incubated in the presence of compound 4f (25 μM) for 90 min and after stimulated or not with insulin (10 nM). Then, cells extracts were analysed to evaluate phosphorylation levels of the insulin receptor.
HepG2 and differentiated C2C12 cells were starved for 24 h and then incubated in the presence of compound 4f (25 μM, final concentration) for 90 min. After this time, cells were washed with PBS and then stimulated or not with 10 nM insulin for 30 min. Then, cells were lysed and cellular proteins separated on a 12% SDS-PAGE. After electrophoresis, cellular proteins were transferred on a PVDF membrane by western blot technique and then probed against antibodies able to specifically recognize insulin receptor (I2033 Sigma Aldrich) or phosphorylated form of IR (MABS65, Sigma-Aldrich). Sample loading was evaluated probing PVDF membrane with anti-actin antibodies (ABT1485 Sigma Aldrich).

human recombinant PTP1B = target: T1, human recombinant PTP1B (Homo sapiens, UniProt P18031); assay: Kinetic analysis of PTP1B inhibition (Lineweaver-Burk plot); type: biochemical; conditions: pNPP as substrate
T1 sequence (P18031 1-435): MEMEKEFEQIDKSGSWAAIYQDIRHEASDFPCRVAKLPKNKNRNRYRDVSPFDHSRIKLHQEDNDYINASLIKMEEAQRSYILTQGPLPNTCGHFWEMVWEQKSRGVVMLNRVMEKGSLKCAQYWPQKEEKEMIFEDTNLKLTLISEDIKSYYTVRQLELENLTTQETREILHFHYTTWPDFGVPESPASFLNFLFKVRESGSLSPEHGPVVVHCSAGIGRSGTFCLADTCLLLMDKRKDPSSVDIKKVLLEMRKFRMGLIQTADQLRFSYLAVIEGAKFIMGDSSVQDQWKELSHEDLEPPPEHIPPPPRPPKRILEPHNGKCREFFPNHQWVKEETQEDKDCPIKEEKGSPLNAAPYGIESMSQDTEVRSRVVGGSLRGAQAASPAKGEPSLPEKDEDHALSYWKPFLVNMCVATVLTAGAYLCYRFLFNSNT
Protocol: Kinetic analyses were carried out to dissect action mechanism of compound 4e and 4f. Briefly, the main kinetic parameters, Km and Vmax, were calculated measuring the initial hydrolysis rate of PTP1B in the presence of increasing pNPP concentration (seven different concentrations in the 0.5–25 mM range). All assays were carried out in duplicate. Data obtained were fitted using the Michaelis-Menten equation. To evaluate the action mechanism of inhibitors, we studied the dependence of Km and Vmax from inhibitors concentration, using three different inhibitor concentrations, at least. Data obtained were then analysed by double reciprocal plot (Lineweaver-Burk plot).

C2C12 cells = assay: Cell viability, MTT assay, C2C12; type: cell-based, murine; conditions: C2C12, 48 h
Protocol: (§1) Human liver cells (HepG2) and murine myoblasts (C2C12) were purchased by Sigma-Aldrich, which obtained them from the European Collection of Authenticated Cell Cultures (ECACC). HepG2 and C2C12 cells were grown in Dulbecco’s Modified Eagle’s medium (DMEM) supplemented with 10% foetal bovine serum (FBS), 2 mM glutamine, 100 IU/mL penicillin, 100 μg/mL streptomycin (Sigma-Aldrich, St. Louis, MO, USA), in a humidified atmosphere and with 5% CO2 at 37 °C. Differentiation of C2C12 was induced incubating murine myoblasts in DMEM supplemented with 2% horse serum. C2C12 cells were plated and grown until they reach 70% confluence. Then, cells were incubated in the presence of 2% horse serum for 96 h. Every 48 h, the medium was replaced with fresh medium. After 96 h, the degree of differentiation was evaluated analysing cells with a contrast phase microscope.
(§2) HepG2 and C2C12 cells were incubated in the presence of increasing concentrations of compounds 4e and 4f for 48 h at 37 °C. After this time, cells were washed with PBS and then incubated for 1 h with 0.5 mg/mL of MTT dissolved in complete medium. Then cells were washed and lysed with 300 μL of DMSO. The absorbance of solutions were evaluated using a microplate readers at 595 nm. All data were normalized respect to control experiment.

HepG2 cells = assay: Cell viability, MTT assay, HepG2; type: cell-based, human; conditions: HepG2, 48 h, up to 50 μM
Protocol: as §1, §2

Mechanism of PTP1B inhibition (human recombinant PTP1B): mixed-type non-competitive inhibitors | PTP1B K′i (apparent dissociation constant, EIS complex) (human recombinant PTP1B): 2.3 ± 0.1 µM | Ki (human recombinant PTP1B; read-out: PTP1B Ki (apparent dissociation constant)): 900 ± 100 nM
SMILES: O=C(O)CCN1C(=O)/C(=C/c2ccc(OCCc3ccccc3)cc2)SC1=S [4f, 3-[(5Z)-4-Oxo-{5-[4-(2-phenylethoxy)phenyl]methylidene}-2-thioxothiazolidin-3-yl]propanoic acid]
IRβ phosphorylation levels after insulin versus insulin alone ([1]; C2C12, 25 μM for 90 min, then 10 nM insulin 30 min): significantly higher | Effect on basal IR phosphorylation levels ([1]; C2C12, 25 μM, 90 min, no insulin): did not appreciably affect | Concentration at which a reduction of cell viability was observed (C2C12 cells; highest concentration tested): 50 µM | Cytotoxicity (cell viability, MTT) (C2C12 cells; up to 50 μM): well tolerated | Cytotoxicity (cell viability, MTT) (HepG2 cells): well tolerated
